Measurements taken from ChEMBL document CHEMBL1201862, “PubChem BioAssay data set” (2004).
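Protocol summary: plate cells (96-well), add compound at 5 concentrations, incubate 48 h, interpolate endpoints linearly. GI50 = concentration required for 50% inhibition of growth.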 Activity calls are given as the source filed them. No stated cut-off is given here; in the data, active = GI50 up to about 1.1 µM and inactive = higher.

Tests used:
Assay in all cases: NCI anticancer screen, dose series, 48 h
[1] = system: A549
[2] = system: SK-OV-3
[3] = system: MDA-MB-435
[4] = system: HOP-62
[5] = system: MDA-MB-231
[6] = system: KM12
[7] = system: SK-MEL-5
[8] = system: COLO 205
[9] = system: DU-145
[10] = system: Hs-578T
[11] = system: CAKI-1
[12] = system: BT-549
[13] = system: RXF 393
[14] = system: U-251
[15] = system: UACC-62
[16] = system: SW-620
[17] = system: T47D
[18] = system: OVCAR-4
[19] = system: SN12C
[20] = system: A498

Row | SMILES | GI50 [1] | GI50 [2] | GI50 [3] | GI50 [4] | GI50 [5] | GI50 [6] | GI50 [7] | GI50 [8] | GI50 [9] | GI50 [10] | GI50 [11] | GI50 [12] | GI50 [13] | GI50 [14] | GI50 [15] | GI50 [16] | GI50 [17] | GI50 [18] | GI50 [19] | GI50 [20]
1 | C=C(NC(=O)C(=C)NC(=O)c1csc(C2=NC3c4csc(n4)C4NC(=O)c5csc(n5)C(C(C)(O)C(C)O)NC(=O)C5CSC(=N5)/C(=C/C)NC(=O)C(C(C)O)NC(=O)c5csc(n5)C3(CC2)NC(=O)C(C)NC(=O)C(=C)NC(=O)C(=C)NC(=O)C(C(C)C)NC2C=Cc3c(C(C)O)cc(nc3C2O)C(=O)OC4C)n1)C(N)=O (stereo not given) | 5.42 µM (inactive) | 19.6 µM (inactive) | 0.743 µM (active) | 19.6 µM (inactive) | 0.815 µM (active) | 2.66 µM (inactive) | 1.29 µM (inactive) | 0.468 µM (active) | 20.9 µM (inactive) | 12.3 µM (inactive) | 3.69 µM (inactive) | 2.37 µM (inactive) | 0.708 µM (active) | 0.877 µM (active) | 0.54 µM (active) | 0.673 µM (active) | 2.4 µM (inactive) | > 52.4 µM (inactive) | 3.75 µM (inactive) | 2.29 µM (inactive)
2 | COc1cc(/C=C2/SC(c3ccccc3)N(c3cccc(Cl)c3)C2=O)cc(OC)c1OC (stereo not given) | 54.5 µM (inactive) | 20.9 µM (inactive) | 17.6 µM (inactive) | 39.8 µM (inactive) | 67 µM (inactive) | 32.4 µM (inactive) | 29.5 µM (inactive) | 56.1 µM (inactive) | 39.1 µM (inactive) | 47 µM (inactive) | 35.9 µM (inactive) | 24.1 µM (inactive) | 15.9 µM (inactive) | 27.6 µM (inactive) | 18.4 µM (inactive) | 28.6 µM (inactive) | 25.5 µM (inactive) | 41 µM (inactive) | 17.5 µM (inactive) | 81.7 µM (inactive)
3 | c1ccc(-c2nnc(-c3ccccn3)c3c2C[C@@H]2C[C@@H]4Cc5c(-c6ccccn6)nnc(-c6ccccn6)c5[C@@H]4[C@H]32)nc1 | 29 µM (inactive) | > 100 µM (inactive) | 50.6 µM (inactive) | 41.2 µM (inactive) | > 100 µM (inactive) | 51.2 µM (inactive) | 27.8 µM (inactive) | 35.1 µM (inactive) | 38.8 µM (inactive) | 70.3 µM (inactive) | 58.7 µM (inactive) | 41.2 µM (inactive) | > 100 µM (inactive) | 22.2 µM (inactive) | 41.7 µM (inactive) | 63.1 µM (inactive) | 38.6 µM (inactive) | 38.5 µM (inactive) | 48.8 µM (inactive) | 2.39 µM (inactive)
4 | Cn1c(=O)sc2cc(C(=S)N3CCOCC3)ccc21 | > 100 µM (inactive) | > 100 µM (inactive) | > 100 µM (inactive) | > 100 µM (inactive) | > 100 µM (inactive) | > 100 µM (inactive) | > 100 µM (inactive) | > 80.7 µM (inactive) | > 100 µM (inactive) | > 41 µM (inactive) | > 100 µM (inactive) | > 100 µM (inactive) | > 100 µM (inactive) | > 59.7 µM (inactive) | > 100 µM (inactive) | > 100 µM (inactive) | > 100 µM (inactive) | > 100 µM (inactive) | > 100 µM (inactive) | > 100 µM (inactive)
5 | CC1=C(C(=O)NNC(=O)C(N)=O)CC(C(=O)NNC(=O)C(N)=O)=C(C)N1 | > 100 µM (inactive) | > 100 µM (inactive) | > 100 µM (inactive) | > 100 µM (inactive) | > 100 µM (inactive) | > 100 µM (inactive) | > 100 µM (inactive) | > 100 µM (inactive) | > 100 µM (inactive) | > 100 µM (inactive) | > 100 µM (inactive) | > 100 µM (inactive) | > 100 µM (inactive) | > 100 µM (inactive) | > 100 µM (inactive) | > 100 µM (inactive) | > 100 µM (inactive) | > 100 µM (inactive) | > 100 µM (inactive) | > 100 µM (inactive)
6 | Nc1cc(Cl)cc2cc(Cl)cnc12 | > 100 µM (inactive) | > 100 µM (inactive) | > 100 µM (inactive) | > 100 µM (inactive) | > 100 µM (inactive) | > 100 µM (inactive) | > 100 µM (inactive) | > 100 µM (inactive) | > 100 µM (inactive) | 89.7 µM (inactive) | > 100 µM (inactive) | > 100 µM (inactive) | > 100 µM (inactive) | > 100 µM (inactive) | 75.2 µM (inactive) | > 100 µM (inactive) | 26.4 µM (inactive) | > 100 µM (inactive) | > 100 µM (inactive) | 49 µM (inactive)
7 | N#CC1(C#N)C2=C(CCCC2)NC(c2ccc(Br)cc2)C1(C#N)C#N (stereo not given) | 17.2 µM (inactive) | 22.7 µM (inactive) | 3.68 µM (inactive) | 17.4 µM (inactive) | 11.5 µM (inactive) | 15.1 µM (inactive) | 15.5 µM (inactive) | 1.24 µM (inactive) | 12.5 µM (inactive) | 17.1 µM (inactive) | 1.75 µM (inactive) | 13.8 µM (inactive) | 2.24 µM (inactive) | 13.5 µM (inactive) | 16.5 µM (inactive) | 1.31 µM (inactive) | 2.26 µM (inactive) | 7.76 µM (inactive) | 2.33 µM (inactive) | 19 µM (inactive)
8 | COc1cc(C(O)CCBr)c(OC)cc1C (stereo not given) | > 100 µM (inactive) | 35.3 µM (inactive) | 4.3 µM (inactive) | 28.6 µM (inactive) | 21.2 µM (inactive) | 29.9 µM (inactive) | 6.18 µM (inactive) | 17.6 µM (inactive) | 43.2 µM (inactive) | 25.1 µM (inactive) | 14.9 µM (inactive) | 23 µM (inactive) | 37.2 µM (inactive) | 33.2 µM (inactive) | 14.6 µM (inactive) | 3.13 µM (inactive) | > 72.1 µM (inactive) | 52.8 µM (inactive) | 16.4 µM (inactive) | > 64.6 µM (inactive)
9 | COc1ccc(/C=N/NC(=O)c2ccc(O)c(CN(C)C)c2)cc1 | > 100 µM (inactive) | > 100 µM (inactive) | 47.3 µM (inactive) | > 100 µM (inactive) | > 100 µM (inactive) | > 100 µM (inactive) | > 100 µM (inactive) | > 100 µM (inactive) | > 100 µM (inactive) | > 100 µM (inactive) | > 100 µM (inactive) | > 100 µM (inactive) | > 100 µM (inactive) | > 100 µM (inactive) | > 100 µM (inactive) | > 100 µM (inactive) | > 100 µM (inactive) | > 100 µM (inactive) | > 100 µM (inactive) | 18.2 µM (inactive)
10 | CCCCCCCCCCCC(=O)OC[C@H](C[As](=O)(O)O)OC(=O)CCCCCCCCCCC | 6.92 µM (inactive) | 14.7 µM (inactive) | 2.64 µM (inactive) | 14.8 µM (inactive) | 3.81 µM (inactive) | 8.11 µM (inactive) | 1.99 µM (inactive) | 19.4 µM (inactive) | 17.3 µM (inactive) | 2.78 µM (inactive) | 8.55 µM (inactive) | 3.84 µM (inactive) | 1.92 µM (inactive) | 2.36 µM (inactive) | 2.3 µM (inactive) | 14.4 µM (inactive) | 15.3 µM (inactive) | 17.7 µM (inactive) | 3.73 µM (inactive) | 6.31 µM (inactive)
11 | COC(=O)c1ccc(C)cc1C1CN=NC12Cc1c(C)cccc1C2=O (stereo not given) | 49.4 µM (inactive) | 94.8 µM (inactive) | 41 µM (inactive) | 46.8 µM (inactive) | 38.5 µM (inactive) | 32.1 µM (inactive) | 30 µM (inactive) | 20.2 µM (inactive) | 55.7 µM (inactive) | 37.6 µM (inactive) | 50.6 µM (inactive) | 75 µM (inactive) | 48.3 µM (inactive) | 42.1 µM (inactive) | 28.4 µM (inactive) | 58.9 µM (inactive) | 23.7 µM (inactive) | 44.1 µM (inactive) | 36 µM (inactive) | 52.5 µM (inactive)
12 | Cc1ccc(OCC2OC(C#N)C(Oc3ccc(C)cc3)C2Oc2ccc(C)cc2)cc1 (stereo not given) | > 100 µM (inactive) | > 100 µM (inactive) | > 100 µM (inactive) | > 100 µM (inactive) | > 100 µM (inactive) | > 100 µM (inactive) | > 100 µM (inactive) | > 100 µM (inactive) | > 100 µM (inactive) | > 100 µM (inactive) | > 100 µM (inactive) | > 100 µM (inactive) | > 100 µM (inactive) | > 100 µM (inactive) | > 100 µM (inactive) | > 100 µM (inactive) | > 100 µM (inactive) | > 100 µM (inactive) | > 100 µM (inactive) | > 100 µM (inactive)
13 | CCC1(c2ccc(N)cc2)CCC(=O)NC1=O (stereo not given) [AMINOGLUTETHIMIDE] | 2880 µM (inactive) | 1190 µM (inactive) | > 2740 µM (inactive) | 1050 µM (inactive) | 2610 µM (inactive) | 2470 µM (inactive) | 2090 µM (inactive) | 1470 µM (inactive) | 3030 µM (inactive) | 1520 µM (inactive) | 1460 µM (inactive) | 1660 µM (inactive) | 1330 µM (inactive) | 2050 µM (inactive) | 1820 µM (inactive) | 3520 µM (inactive) | 2070 µM (inactive) | 1970 µM (inactive) | 3400 µM (inactive) | 2310 µM (inactive)
